Experimental data taken from patent US7288407B2, “Stable cytochrome P450 24 (CYP24) expressing cell line and methods and uses thereof” (Cytochroma, Inc., priority 2002, dated 2007).

Biological target: T1, CYP24 (Homo sapiens, UniProt Q07973)
T1 construct: The full-length CYP24 cDNA was amplified using one-step RT-PCR kit; expressed in transfected cells
T1 sequence (Q07973 36-514): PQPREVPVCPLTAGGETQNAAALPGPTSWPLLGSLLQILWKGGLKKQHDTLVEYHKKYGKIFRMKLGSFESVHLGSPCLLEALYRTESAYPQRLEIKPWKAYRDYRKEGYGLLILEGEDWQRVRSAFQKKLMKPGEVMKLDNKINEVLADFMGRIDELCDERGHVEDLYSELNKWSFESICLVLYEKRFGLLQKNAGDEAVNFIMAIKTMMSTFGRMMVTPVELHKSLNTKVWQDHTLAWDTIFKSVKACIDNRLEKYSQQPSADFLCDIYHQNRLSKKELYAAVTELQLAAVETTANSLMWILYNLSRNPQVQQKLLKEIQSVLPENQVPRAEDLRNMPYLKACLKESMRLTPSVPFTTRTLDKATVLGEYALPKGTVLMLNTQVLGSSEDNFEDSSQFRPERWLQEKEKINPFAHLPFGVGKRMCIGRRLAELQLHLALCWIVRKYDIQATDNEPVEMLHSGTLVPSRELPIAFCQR
Assay: CYP24 enzyme assay using stable CYP24-V79 cells
Assay type: cell-based
Conditions: Bligh-Dyer extraction, organic phase from 3 hours analyzed by HPLC
Method: CYP24/V79 cells were suspended, counted, seeded on well plates and extracted using the Bligh-Dyer extraction method. […] To induce cells, media was removed and the cells washed with 1× PBS buffer. […] Next, a cell suspension was prepared at the day of assay by removing the medium and washing the cell with PBS. 2 ml tripsin/EDTA was added to the plate which was kept in 37° C. for 5 min. Next, 3 ml EDTA medium+1% FCS was added followed by transfer to a 50 ml tube. The plate was washed with 5 ml PBS and mixed. The mix was centrifuged (2,000 rpm, 5 min) and the suspended cells pelleted in DMEM medium+1% BSA. […] About 5 mL 1× PBS buffer was added to collect cells from the plate and then placed in a 50 mL tube followed by repetition with second cell line. About 5 mL 1× PBS buffer was added to further wash the plate and added to the original 50 mL tube. Tubes were centrifuged (2,000 rpm/800 g for 6 minutes) and the supernatant removed. […] The cells were counted via hemocytometer and density adjusted to 250,000 cells/150 μL (1.67 million/1 mL) and then 150 μL added to appropriately labeled wells of 48-well plate. […] The cells were counted and cell density was adjusted to 500,000/150 μL. […] The plate is counted in a scintillation counter. Enzyme activity was then calculated.

effect on CYP24 activity (inhibitor/activator): inhibitors
Structure (SMILES): CC[C@H]1OC(=O)[C@H](C)[C@@H](O[C@H]2C[C@@](C)(OC)[C@@H](O)[C@H](C)O2)[C@H](C)[C@@H](O[C@@H]2O[C@H](C)C[C@H](N(C)C)[C@H]2O)[C@](C)(O)C[C@@H](C)C(=O)[C@H](C)[C@@H](O)[C@]1(C)O [erythromycin]
